From patent US12012409B2, “Bicyclic heterocycles as FGFR inhibitors” (Incyte Corporation, priority 2020, dated 2024) come the findings set out here.

What all share (type): biochemical
Conditions in all cases: wild-type un-phosphorylated protein; pre-incubated for 4 hours; ATP near or below Km

The target in test [1] is wild-type un-phosphorylated FGFR3 (Homo sapiens, UniProt P22607). Description: FGFR Enzymatic Assay (FRET peptide phosphorylation), FGFR3. How it is done:
(§1) The inhibitor potency of the exemplified compounds was determined in an enzyme discontinuous assay that measures peptide phosphorylation using FRET measurements to detect product formation. Inhibitors were serially diluted in DMSO and a volume of 0.2 μL was transferred to the wells of a 384-well plate. […] Appropriate controls (enzyme blank and enzyme with no inhibitor) were included on the plate. […] The ATP Km values were pre-determined in a separate series of experiments. […] The plate was allowed to equilibrate for ˜10 minutes at ambient temperature before scanning on a PheraStar plate reader (BMG Labtech) instrument.
(§2) Either GraphPad prism or XLfit was used to analyze the data. The IC50 values were derived by fitting the data to a four parameter logistic equation producing a sigmoidal dose-response curve with a variable Hill coefficient. Prism equation: Y=Bottom+(Top−Bottom)/(1+10^((LogIC50−X)*Hill slope)); XLfit equation: Y=(A+((B−A)/(1+((X/C)^D)))) where X is the logarithm of inhibitor concentration and Y is the response.

Test [2] addresses wild-type un-phosphorylated FGFR1 (Homo sapiens, UniProt P11362). Description: FGFR Enzymatic Assay (FRET peptide phosphorylation), FGFR1. The method, then:
as §1, §2

Test [3] concerns the target wild-type un-phosphorylated FGFR2 (Homo sapiens, UniProt P21802). Description: FGFR Enzymatic Assay (FRET peptide phosphorylation), FGFR2. The method, then:
as §1, §2
The data in Table 1 was measured in wild-type un-phosphorylated FGFR1, FGFR2, FGFR3 and FGFR4 protein.

Where only a bound is given, the exact number is not on record here.

wild-type un-phosphorylated FGFR3, sequence (P22607 23-806): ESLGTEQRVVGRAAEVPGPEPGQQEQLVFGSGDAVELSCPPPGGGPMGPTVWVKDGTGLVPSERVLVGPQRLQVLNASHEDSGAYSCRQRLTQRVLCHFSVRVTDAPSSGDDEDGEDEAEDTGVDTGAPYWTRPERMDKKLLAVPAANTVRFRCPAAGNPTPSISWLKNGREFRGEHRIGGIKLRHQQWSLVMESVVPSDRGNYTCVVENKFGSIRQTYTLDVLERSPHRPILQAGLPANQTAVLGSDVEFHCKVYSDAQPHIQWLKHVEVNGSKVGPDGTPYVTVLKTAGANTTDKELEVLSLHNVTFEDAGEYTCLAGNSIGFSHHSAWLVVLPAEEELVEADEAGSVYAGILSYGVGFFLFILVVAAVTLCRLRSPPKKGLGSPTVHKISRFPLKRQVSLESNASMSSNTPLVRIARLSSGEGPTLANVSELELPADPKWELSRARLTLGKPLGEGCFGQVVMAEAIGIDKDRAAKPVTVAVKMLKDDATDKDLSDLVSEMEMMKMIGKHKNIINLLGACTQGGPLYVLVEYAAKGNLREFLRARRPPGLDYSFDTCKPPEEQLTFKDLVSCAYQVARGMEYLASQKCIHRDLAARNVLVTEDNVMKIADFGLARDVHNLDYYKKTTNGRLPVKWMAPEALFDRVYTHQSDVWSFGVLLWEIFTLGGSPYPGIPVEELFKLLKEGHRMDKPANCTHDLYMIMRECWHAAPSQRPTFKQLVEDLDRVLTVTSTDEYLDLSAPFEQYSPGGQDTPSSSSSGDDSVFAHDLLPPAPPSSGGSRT
wild-type un-phosphorylated FGFR2, sequence (P21802 22-821): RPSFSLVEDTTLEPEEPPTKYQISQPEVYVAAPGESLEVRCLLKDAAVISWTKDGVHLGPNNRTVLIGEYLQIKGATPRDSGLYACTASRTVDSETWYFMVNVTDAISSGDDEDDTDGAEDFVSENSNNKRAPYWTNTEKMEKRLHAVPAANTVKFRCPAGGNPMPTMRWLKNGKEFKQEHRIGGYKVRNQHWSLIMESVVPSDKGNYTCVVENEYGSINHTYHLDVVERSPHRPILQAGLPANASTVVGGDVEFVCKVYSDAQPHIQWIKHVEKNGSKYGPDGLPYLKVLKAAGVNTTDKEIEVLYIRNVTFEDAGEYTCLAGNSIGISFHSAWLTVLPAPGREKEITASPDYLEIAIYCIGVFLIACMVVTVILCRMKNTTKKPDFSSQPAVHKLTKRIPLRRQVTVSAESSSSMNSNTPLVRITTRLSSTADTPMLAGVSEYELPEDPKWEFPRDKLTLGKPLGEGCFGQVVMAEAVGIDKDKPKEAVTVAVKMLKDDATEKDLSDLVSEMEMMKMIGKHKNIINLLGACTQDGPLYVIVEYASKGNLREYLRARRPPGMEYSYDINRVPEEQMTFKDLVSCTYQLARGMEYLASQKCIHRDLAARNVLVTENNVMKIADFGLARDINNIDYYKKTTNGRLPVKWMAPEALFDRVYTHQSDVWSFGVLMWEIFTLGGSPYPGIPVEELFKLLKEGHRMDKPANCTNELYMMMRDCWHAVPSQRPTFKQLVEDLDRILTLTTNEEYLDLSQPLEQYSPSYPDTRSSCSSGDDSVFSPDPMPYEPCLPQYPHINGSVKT
wild-type un-phosphorylated FGFR1, sequence (P11362 22-822): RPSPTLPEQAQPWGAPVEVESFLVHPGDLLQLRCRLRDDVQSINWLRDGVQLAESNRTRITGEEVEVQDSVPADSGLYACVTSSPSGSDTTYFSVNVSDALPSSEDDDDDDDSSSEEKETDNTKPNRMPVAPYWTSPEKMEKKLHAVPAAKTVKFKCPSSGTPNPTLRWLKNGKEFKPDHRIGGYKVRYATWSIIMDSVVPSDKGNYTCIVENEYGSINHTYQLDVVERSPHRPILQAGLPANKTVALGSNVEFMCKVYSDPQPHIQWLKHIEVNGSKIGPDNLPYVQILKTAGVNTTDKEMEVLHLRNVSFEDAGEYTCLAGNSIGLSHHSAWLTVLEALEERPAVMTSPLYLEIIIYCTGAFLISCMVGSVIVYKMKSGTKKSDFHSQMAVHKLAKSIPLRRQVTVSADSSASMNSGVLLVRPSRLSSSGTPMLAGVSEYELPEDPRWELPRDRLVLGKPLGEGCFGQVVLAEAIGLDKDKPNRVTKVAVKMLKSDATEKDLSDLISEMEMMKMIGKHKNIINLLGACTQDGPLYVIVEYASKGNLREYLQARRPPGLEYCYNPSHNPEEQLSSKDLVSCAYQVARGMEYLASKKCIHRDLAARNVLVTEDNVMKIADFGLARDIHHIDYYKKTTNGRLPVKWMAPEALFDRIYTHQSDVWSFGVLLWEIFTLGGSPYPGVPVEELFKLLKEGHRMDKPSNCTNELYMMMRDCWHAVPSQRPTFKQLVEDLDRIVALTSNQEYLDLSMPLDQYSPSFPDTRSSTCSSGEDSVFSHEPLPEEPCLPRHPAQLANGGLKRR

As a reminder, the IC50 is the concentration needed to halve the response being measured. A high value points to weaker potency. For `CNC(=O)c1cc(F)c(F)c(-c2cnc3cc(-c4ccncc4)c(O[C@H]4CCOC4)nn23)c1` [Example 72, (S)-3,4-Difluoro-N-methyl-5-(7-(pyridin-4-yl)-6-((tetrahydrofuran-3-yl)oxy)imidazo[1,2-b]pyridazin-3-yl)benzamide], the half-maximal inhibitory concentration (IC50) was below 0.01 µM in test [1], 0.1 to 0.4 µM in test [2] and 0.01 to 0.1 µM in test [3].
Regarding `CC(C)(O)Cn1cc(-c2cc3ncc(-c4cccc(-c5ccc(F)cc5F)c4)n3nc2O[C@H]2CCOC2)cn1` [Example 48, (S)-1-(4-(3-(2′,4′-Difluoro-[1,1′-biphenyl]-3-yl)-6-((tetrahydrofuran-3-yl)oxy)imidazo[1,2-b]pyridazin-7-yl)-1H-pyrazol-1-yl)-2-methylpropan-2-ol], the IC50 in test [1], in test [2] and in test [3] was 0.01 to 0.1 µM each time.
For `CNC(=O)c1cc(F)c(F)c(-c2cnc3cc(-c4cnn(-c5ccccn5)c4)c(O[C@H]4CCOC4)nn23)c1` [Example 70, (S)-3,4-Difluoro-N-methyl-5-(7-(1-(pyridin-2-yl)-1H-pyrazol-4-yl)-6-((tetrahydrofuran-3-yl)oxy)imidazo[1,2-b]pyridazin-3-yl)benzamide], the IC50 in test [1] was below 0.01 µM; in test [2], 0.1 to 0.4 µM; in test [3], below 0.01 µM.
Take `CNC(=O)c1cc(F)c(F)c(-c2cnc3cc(-c4cnn(C)c4)c(OCCOC)nn23)c1` [Example 20, 3,4-Difluoro-5-(6-(2-methoxyethoxy)-7-(1-methyl-1H-pyrazol-4-yl)imidazo[1,2-b]pyridazin-3-yl)-N-methylbenzamide]: the values for the IC50 in test [1], in test [2] and in test [3] were below 0.01 µM, 0.01 to 0.1 µM and below 0.01 µM, respectively.
On to `CC(C)n1cc(-c2cc3ncc(-c4ccc5c(c4)C(=O)NC5)n3nc2O[C@H]2CCOC2)cn1` [Example 77, (S)-6-(7-(1-Isopropyl-1H-pyrazol-4-yl)-6-((tetrahydrofuran-3-yl)oxy)imidazo[1,2-b]pyridazin-3-yl)isoindolin-1-one], for which the IC50 in test [1] was 0.01 to 0.1 µM; in test [2], at least 0.4 µM; in test [3], 0.01 to 0.1 µM.
Take `CNC(=O)c1cc(F)c(F)c(-c2cnc3cc(-c4cnn(C5CCC5)c4)c(O[C@H]4CCOC4)nn23)c1` [Example 25, (S)-3-(7-(1-Cyclobutyl-1H-pyrazol-4-yl)-6-((tetrahydrofuran-3-yl)oxy)imidazo[1,2-b]pyridazin-3-yl)-4,5-difluoro-N-methylbenzamide]: the IC50 in test [1], in test [2] and in test [3] was below 0.01 µM in each case.
`CNC(=O)c1cc(-c2cnc3cc(-c4ccc(C)c(C#N)c4)c(O[C@H]4CCOC4)nn23)c(F)c(C(F)F)c1` [Example 31, (S)-3-(7-(3-Cyano-4-methylphenyl)-6-((tetrahydrofuran-3-yl)oxy)imidazo[1,2-b]pyridazin-3-yl)-5-(difluoromethyl)-4-fluoro-N-methylbenzamide]: the IC50 in test [1] is 0.01 to 0.1 µM; in test [2] it was at least 0.4 µM; in test [3], 0.01 to 0.1 µM.
`CNC(=O)c1cc(F)c(F)c(-c2cnc3cc(-c4cnn(CCN5CCCC5=O)c4)c(O[C@H]4CCOC4)nn23)c1` [Example 75, (S)-3,4-Difluoro-N-methyl-5-(7-(1-(2-(2-oxopyrrolidin-1-yl)ethyl)-1H-pyrazol-4-yl)-6-((tetrahydrofuran-3-yl)oxy)imidazo[1,2-b]pyridazin-3-yl)benzamide]: the IC50 in test [1], in test [2] and in test [3] was below 0.01 µM throughout.
Consider `CNC(=O)c1cc(F)c(F)c(-c2cnc3cc(-c4cnn(C5CCN(C)CC5)c4)c(O[C@H]4CCOC4)nn23)c1` [Example 71, (S)-3,4-Difluoro-N-methyl-5-(7-(1-(1-methylpiperidin-4-yl)-1H-pyrazol-4-yl)-6-((tetrahydrofuran-3-yl)oxy)imidazo[1,2-b]pyridazin-3-yl)benzamide], for which the IC50 in test [1], in test [2] and in test [3] was below 0.01 µM in each case.
On to `CNC(=O)c1cc(-c2cnc3cc(-c4ccc(C(C)(C)O)nc4)c(O[C@H]4CCOC4)nn23)c(F)c(C(F)F)c1` [Example 35, (S)-3-(Difluoromethyl)-4-fluoro-5-(7-(6-(2-hydroxypropan-2-yl)pyridin-3-yl)-6-((tetrahydrofuran-3-yl)oxy)imidazo[1,2-b]pyridazin-3-yl)-N-methylbenzamide], for which the IC50 in test [1] was below 0.01 µM; in test [2], 0.1 to 0.4 µM; in test [3], 0.01 to 0.1 µM.
Regarding `CNC(=O)c1cc(CC#N)c(F)c(-c2cnc3cc(-c4cnn(C)c4)c(O[C@H]4CCOC4)nn23)c1` [Example 44, (S)-3-(Cyanomethyl)-4-fluoro-N-methyl-5-(7-(1-methyl-1H-pyrazol-4-yl)-6-((tetrahydrofuran-3-yl)oxy)imidazo[1,2-b]pyridazin-3-yl)benzamide], the IC50 is below 0.01 µM in test [1], 0.1 to 0.4 µM in test [2] and 0.01 to 0.1 µM in test [3].
Regarding `CNC(=O)c1cc(-c2cnc3cc(-c4cnn5ccccc45)c(O[C@H]4CCOC4)nn23)c(F)c(C(F)F)c1` [Example 27, (S)-3-(Difluoromethyl)-4-fluoro-N-methyl-5-(7-(pyrazolo[1,5-a]pyridin-3-yl)-6-((tetrahydrofuran-3-yl)oxy)imidazo[1,2-b]pyridazin-3-yl)benzamide], the IC50 in test [1], in test [2] and in test [3] was 0.01 to 0.1 µM throughout.
Regarding `CNC(=O)c1cc(F)c(F)c(-c2cnc3cc(-c4ccc(C)nc4)c(O[C@H]4CCOC4)nn23)c1` [Example 21, (S)-3,4-Difluoro-N-methyl-5-(7-(6-methylpyridin-3-yl)-6-((tetrahydrofuran-3-yl)oxy)imidazo[1,2-b]pyridazin-3-yl)benzamide], the IC50 in test [1] is below 0.01 µM; in test [2], 0.1 to 0.4 µM; in test [3], 0.01 to 0.1 µM.
For `CNC(=O)c1cc(-c2cnc3cc(-c4cnn([C@H]5CC[C@H](O)CC5)c4)c(O[C@H]4CCOC4)nn23)c(F)c(C(F)F)c1` [Example 34, 3-(Difluoromethyl)-4-fluoro-5-(7-(1-((1r,4S)-4-hydroxycyclohexyl)-1H-pyrazol-4-yl)-6-(((S)-tetrahydrofuran-3-yl)oxy)imidazo[1,2-b]pyridazin-3-yl)-N-methylbenzamide], in that order: below 0.01 µM, below 0.01 µM and below 0.01 µM.
For the compound `CCOc1cccc(-c2cnc3cc(-c4cnn(C)c4)c(O[C@H]4CCOC4)nn23)c1` [Example 47, (S)-3-(3-Ethoxyphenyl)-7-(1-methyl-1H-pyrazol-4-yl)-6-((tetrahydrofuran-3-yl)oxy)imidazo[1,2-b]pyridazine], the IC50 in test [1], in test [2] and in test [3] was 0.01 to 0.1 µM throughout.
Take `CNC(=O)c1cc(-c2cnc3cc(-c4cnn5c4CNCC5)c(O[C@H]4CCOC4)nn23)c(F)c(C(F)F)c1` [Example 28, (S)-3-(Difluoromethyl)-4-fluoro-N-methyl-5-(6-((tetrahydrofuran-3-yl)oxy)-7-(4,5,6,7-tetrahydropyrazolo[1,5-a]pyrazin-3-yl)imidazo[1,2-b]pyridazin-3-yl)benzamide]: the IC50 is 0.01 to 0.1 µM in test [1], at least 0.4 µM in test [2] and 0.01 to 0.1 µM in test [3].
Take `CNC(=O)c1cncc(-c2cnc3cc(-c4ccc(NC(=O)OC)cc4)c(O[C@H]4CCOC4)nn23)c1` [Example 67, Methyl (S)-(4-(3-(5-(Methylcarbamoyl)pyridin-3-yl)-6-((tetrahydrofuran-3-yl)oxy)imidazo[1,2-b]pyridazin-7-yl)phenyl)carbamate]: the results for the IC50 in test [1], in test [2] and in test [3] were 0.01 to 0.1 µM, 0.1 to 0.4 µM and 0.01 to 0.1 µM, respectively.
Consider `CNC(=O)c1cc(F)c(F)c(-c2cnc3cc(-c4cnn(C5CCN(C(C)=O)CC5)c4)c(O[C@H]4CCOC4)nn23)c1` [Example 74, (S)-3-(7-(1-(1-Acetylpiperidin-4-yl)-1H-pyrazol-4-yl)-6-((tetrahydrofuran-3-yl)oxy)imidazo[1,2-b]pyridazin-3-yl)-4,5-difluoro-N-methylbenzamide], for which the IC50 in test [1], in test [2] and in test [3] was below 0.01 µM throughout.
As for `CNC(=O)c1cc(F)c(F)c(-c2cnc3cc(-c4cnn(C5CCS(=O)(=O)C5)c4)c(O[C@H]4CCOC4)nn23)c1` (stereo partly drawn) [Example 69, 3-(7-(1-(1,1-Dioxidotetrahydrothiophen-3-yl)-1H-pyrazol-4-yl)-6-(((S)-tetrahydrofuran-3-yl)oxy)imidazo[1,2-b]pyridazin-3-yl)-4,5-difluoro-N-methylbenzamide], the IC50 in test [1] is below 0.01 µM; in test [2], 0.01 to 0.1 µM; in test [3], below 0.01 µM.
With `CNC(=O)c1cc(-c2cnc3cc(-c4ccc(N5CCCC5)nc4)c(O[C@H]4CCOC4)nn23)c(F)c(C(F)F)c1` [Example 32, (S)-3-(Difluoromethyl)-4-fluoro-N-methyl-5-(7-(6-(pyrrolidin-1-yl)pyridin-3-yl)-6-((tetrahydrofuran-3-yl)oxy)imidazo[1,2-b]pyridazin-3-yl)benzamide], the IC50 was below 0.01 µM in test [1], 0.1 to 0.4 µM in test [2] and below 0.01 µM in test [3].
In test [3], `CNC(=O)c1cc(C)c(F)c(-c2cnc3cc(-c4cnn(C)c4)c(O[C@H]4CCOC4)nn23)c1` [Example 42, (S)-4-Fluoro-N,3-dimethyl-5-(7-(1-methyl-1H-pyrazol-4-yl)-6-((tetrahydrofuran-3-yl)oxy)imidazo[1,2-b]pyridazin-3-yl)benzamide] returned an IC50 below 0.01 µM.
